Reference: US20050266509A1, “Interaction of NMDA receptor with protein tyrosine phosphatase” (AGY Therapeutics, Inc., priority 2003, published 2005)

Key:
Assay type in all cases: biochemical
PTPMEG = molecular target: T1, PTPMEG (Homo sapiens, UniProt P29074); test: TR-FRET phosphatase activity assay, PTPMEG
T1 construct: Asp-Ser-6xHis (N); made in house; host or cells: E. coli BL21(DE3)
T1 sequence (P29074 655-911 limits assumed): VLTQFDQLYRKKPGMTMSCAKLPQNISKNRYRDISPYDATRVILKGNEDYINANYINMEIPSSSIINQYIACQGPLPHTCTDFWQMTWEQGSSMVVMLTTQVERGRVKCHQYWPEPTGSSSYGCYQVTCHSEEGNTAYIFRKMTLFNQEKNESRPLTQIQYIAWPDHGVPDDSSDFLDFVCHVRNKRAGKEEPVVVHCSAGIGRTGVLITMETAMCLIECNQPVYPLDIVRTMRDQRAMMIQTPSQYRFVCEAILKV
Procedure: Expression and Purification of PTPMEG The DNA sequence encoding the C-terminal 326 residues of PTPMEG (phosphatase domain) was subcloned into the pET-17b vector (Novagen) between the Ndel and Xhol restriction sites. An N-terminal tag consisting of Asp-Ser-6×His was incorporated at the beginning of the protein sequence. Protein expression was performed in BL21(DE3) cells at 37° C. with a 4 hour 0.5 mM IPTG induction. The cells were harvested by centrifugation and stored at −80° C. until needed for protein purification. Protein purification consisted of cell lysis by sonication, immobilized metal affinity chromatography (IMAC) on a Ni^2+-NTA column (Qiagen), followed by hydrophobic interaction chromatography (HIC) on a phenyl sepharose column (Amersham Pharmacia Biotech) and/or ion exchange chromatography (IEC) on a Q sepharose column (Amersham Pharmacia Biotech). The purified 38.3 kDa protein was buffer exchanged into 50 mM HEPES, pH 7.5 and stored at −80° C.
Phosphatase Buffer: 50 mm HEPES, pH 8; 1 mM DDT; 2 mM EDTA; 0.01% Brij solution; 10 mM MgCl2. […]
The plates are then placed in the plate reader, an Analyst HT. […] Fluorescence resonance energy transfer (FRET) from Eu-Ab to APC will only occur when they are in close proximity. […]

YOP51 = YOP51 (Yersinia enterocolitica, UniProt P15273); test: FRET phosphatase assay, YOP51
Sequence of YOP51 (P15273 whole entry): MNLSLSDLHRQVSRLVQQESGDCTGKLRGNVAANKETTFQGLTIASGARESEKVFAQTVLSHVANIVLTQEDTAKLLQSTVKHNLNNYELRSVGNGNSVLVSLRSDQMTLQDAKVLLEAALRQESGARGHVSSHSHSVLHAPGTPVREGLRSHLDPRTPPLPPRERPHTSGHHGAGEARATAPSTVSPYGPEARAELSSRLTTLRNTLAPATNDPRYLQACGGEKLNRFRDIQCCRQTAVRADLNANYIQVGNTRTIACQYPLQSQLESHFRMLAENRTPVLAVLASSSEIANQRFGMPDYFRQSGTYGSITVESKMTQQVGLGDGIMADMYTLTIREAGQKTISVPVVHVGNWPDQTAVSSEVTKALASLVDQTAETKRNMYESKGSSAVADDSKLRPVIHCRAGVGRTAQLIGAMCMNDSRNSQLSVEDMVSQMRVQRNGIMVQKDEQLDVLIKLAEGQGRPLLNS
Procedure: (§1) For the enzyme activity assay, 2.5 μl of compound, 12.5 μl of enzyme, and 10 μl of substrate (separated by air gaps) are added to columns 3 through 24 by the Biomek FX in a single dispense. After the dispense, the tips are washed with DMSO and water for re-use between each quadrant. Once the assay plates are set up, they are incubated at 27° C. for 45 minutes. Then 20 μl of detection buffer is added to stop the reaction and to allow the Europium antibody (Eu-Ab) and streptavidin-APC to bind to the substrate.
(§2) The plates are then placed in the plate reader, an Analyst HT. Excitation light at 360 nm is used to excite the Europium antibody with an emission at 620 nm. Fluorescence resonance energy transfer (FRET) from Eu-Ab to APC will only occur when they are in close proximity. Therefore, when an APC emission is observed at 665 nm the enzyme has been inhibited from removing the phosphate group from the substrate. The FRET assay is time-resolved (TR), where there is a delay between excitation light and collection of emission signals. This reduces the amount of stray light created by short-lived fluorescing molecules. The Analyst HT measures APC and Europium emission signals and calculates the ratio between the two intensities. Typical intensities for the Europium is ˜2000 and APC is ˜600.
(§3) The following compounds were tested by FRET against the listed phosphatases, and the IC50 were obtained. […]

PTPIB = molecular target: T2, PTPIB (Homo sapiens, UniProt P18031); test: FRET phosphatase assay, PTPIB
T2 sequence (P18031 1-435): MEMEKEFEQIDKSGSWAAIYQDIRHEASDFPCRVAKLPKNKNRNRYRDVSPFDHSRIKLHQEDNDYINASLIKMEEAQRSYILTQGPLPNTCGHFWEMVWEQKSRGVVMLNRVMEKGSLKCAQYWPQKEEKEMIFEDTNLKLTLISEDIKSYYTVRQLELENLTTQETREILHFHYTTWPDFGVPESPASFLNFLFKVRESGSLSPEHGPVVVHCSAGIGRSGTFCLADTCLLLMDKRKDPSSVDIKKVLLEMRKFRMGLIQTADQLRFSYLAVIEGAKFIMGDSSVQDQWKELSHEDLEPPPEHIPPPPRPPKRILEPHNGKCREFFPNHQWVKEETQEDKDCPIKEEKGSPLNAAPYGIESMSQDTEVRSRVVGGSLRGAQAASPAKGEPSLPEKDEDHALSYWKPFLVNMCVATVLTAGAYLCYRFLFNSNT
Procedure: as §1, §2, §3

PTPB = PTPB (Homo sapiens, UniProt P23467); test: FRET phosphatase assay, PTPB
Sequence of PTPB (P23467 1643-1997 limits assumed): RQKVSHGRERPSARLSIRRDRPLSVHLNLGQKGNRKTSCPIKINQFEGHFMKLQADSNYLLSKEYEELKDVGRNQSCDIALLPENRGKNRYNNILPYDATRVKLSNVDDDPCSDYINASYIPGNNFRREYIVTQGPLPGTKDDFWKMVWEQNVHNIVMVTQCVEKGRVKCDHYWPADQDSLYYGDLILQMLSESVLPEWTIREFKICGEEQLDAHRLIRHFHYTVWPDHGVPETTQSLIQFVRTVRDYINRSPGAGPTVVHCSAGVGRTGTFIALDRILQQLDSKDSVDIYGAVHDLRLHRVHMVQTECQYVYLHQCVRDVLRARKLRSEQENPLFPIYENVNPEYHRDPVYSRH
Procedure: as §1, §2, §3

CCOC(=O)C(=CC1=C/C(=C/N(C)C)C(=O)O1)C(=O)OCC [AGY- 0046293]
IC50 (PTPMEG): 0.32 µM
IC50 (YOP51): 4.18 µM
IC50 (PTPIB): 41.1 µM
IC50 (PTPB): 23.2 µM
